Measurements taken from patent US20200069775A1, “BRAIN OSTEOCALCIN RECEPTOR AND COGNITIVE DISORDERS” (The Trustees of Columbia University in the City of New York, priority 2017, published 2020).
“Also recorded” adds a separate entry of the source.

Assays:
WT mice = assay: Contextual Fear Conditioning after acute hippocampal injection; assay type: in vivo, mouse
Protocol: FIG. 11. CREB activation by osteocalcin is functionally relevant. Contextual fear conditioning in 3.5 month old mice injected acutely with 10 ng recombinant uncarboxylated osteocalcin 24 hours prior to context exposure. 3 shocks of 0.55 mA were delivered to mice 1 min apart.
To determine whether these acute injections and corresponding activation of the CREB pathway are functionally relevant, Contextual Fear Conditioning (CFC), a hippocampus dependent task that assesses long term memory, was performed. Mice were injected acutely in both hemispheres with either PBS or 10 ng recombinant uncarboxylated osteocalcin.

Gpr158 = target: T1, Gpr158 (Mus musculus, UniProt Q8C419); assay: Whole-cell current clamp in CA3 pyramidal neurons of WT and Gpr158−/− hippocampal slices; assay type: cell-based; parameters: visually identified pyramidal neurons in the CA3 area of the hippocampus; from tissue; host or cells: coronal hippocampal slices of 3-4 week old male WT and Gpr158-/- mice
T1 sequence (Q8C419 25-1200): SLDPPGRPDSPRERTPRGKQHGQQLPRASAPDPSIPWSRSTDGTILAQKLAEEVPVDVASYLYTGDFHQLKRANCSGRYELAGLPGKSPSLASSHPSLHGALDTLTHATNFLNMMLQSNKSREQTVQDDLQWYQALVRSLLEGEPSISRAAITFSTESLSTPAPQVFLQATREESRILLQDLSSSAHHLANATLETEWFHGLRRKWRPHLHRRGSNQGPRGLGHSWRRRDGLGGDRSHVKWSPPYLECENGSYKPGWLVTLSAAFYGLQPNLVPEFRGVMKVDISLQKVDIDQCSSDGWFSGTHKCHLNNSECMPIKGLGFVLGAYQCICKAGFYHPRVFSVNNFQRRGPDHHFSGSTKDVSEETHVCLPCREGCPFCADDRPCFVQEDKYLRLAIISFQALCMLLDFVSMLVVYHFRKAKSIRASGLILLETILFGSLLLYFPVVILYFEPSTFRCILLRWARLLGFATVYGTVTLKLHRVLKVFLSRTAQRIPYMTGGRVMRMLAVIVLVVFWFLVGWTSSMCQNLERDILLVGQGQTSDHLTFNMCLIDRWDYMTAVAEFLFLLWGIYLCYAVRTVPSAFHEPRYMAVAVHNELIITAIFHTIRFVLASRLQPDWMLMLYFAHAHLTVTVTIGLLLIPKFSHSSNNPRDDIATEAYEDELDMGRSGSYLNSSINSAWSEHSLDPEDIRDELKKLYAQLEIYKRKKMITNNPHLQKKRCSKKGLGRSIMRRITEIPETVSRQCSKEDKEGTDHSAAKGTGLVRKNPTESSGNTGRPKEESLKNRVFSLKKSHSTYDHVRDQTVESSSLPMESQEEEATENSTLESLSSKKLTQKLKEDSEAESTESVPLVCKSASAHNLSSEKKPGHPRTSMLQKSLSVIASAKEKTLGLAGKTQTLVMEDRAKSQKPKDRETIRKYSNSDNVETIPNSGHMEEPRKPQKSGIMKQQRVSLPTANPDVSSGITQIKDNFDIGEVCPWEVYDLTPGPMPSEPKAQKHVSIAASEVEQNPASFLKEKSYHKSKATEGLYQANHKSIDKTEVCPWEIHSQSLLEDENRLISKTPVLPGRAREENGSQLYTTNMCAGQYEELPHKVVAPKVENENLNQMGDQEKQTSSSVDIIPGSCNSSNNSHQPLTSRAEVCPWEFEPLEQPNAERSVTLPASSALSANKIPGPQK
Protocol: Coronal brain slices containing the hippocampus were prepared from wild type and KO mice (3-4 weeks old, male) as previously reporte. Briefly, mice were anesthetized with isoflurane and then decapitated to harvest brains, which were rapidly removed and immersed in an oxygenated cutting solution at 4° C. containing (in mM): sucrose 220, KCl 2.5, CaCl2 1, MgCl2 6, NaH2PO4 1.25, NaHCO3 26, and glucose 10, and adjusted to pH 7.3 with NaOH. Coronal slices containing the hioopcampus (300 μm thick) were cut with a vibratome, trimmed to contain just the hippocampus. After preparation, slices were stored in a holding chamber with an oxygenated (with 5% CO2 and 95% O2) artificial cerebrospinal fluid (ACSF) containing (in mM): NaCl 124, KCl3, CaCl2 2, MgCl2 2, NaH2PO4 1.23, NaHCO3 26, glucose 10, pH 7.4 with NaOH. The slices were eventually transferred to a recording chamber constantly perfused with ACSF at 33° C. at a rate of 2 ml/min after at least a 1 hour recovery in the storage chamber. […] After a stable base of APs were recorded for 10 minutes, osteocalcin was applied to the recorded cells through bath application at a concentration of 10 ng/ml for 5-10 minutes and then washed out with ACSF. […] Action potentials were detected and analyzed with AxoGraph X and plotted with Igor Pro software (WaveMetrics, Lake Oswego, Oreg.).

CA3 pyramidal neurons showing the effect on spontaneous AP frequency (Gpr158; WT): 4 of 4 cells
Substance: osteocalcin: Recombinant osteocalcin bacterially produced, cleaved from the GST subunit; completely undercarboxylated at all three sites; full-length mouse osteocalcin (YLGASVPSPDPLEPTREQCELNPACDELSDQYGLKTAYKRIYGITI)
% freezing on Day 1 (CFC) (WT mice; 10 ng injected 24 hours prior to context exposure): % freezing was the same for both groups
freezing behavior 24 hours after the initial shocks (CFC) (WT mice; 10 ng injected acutely in both hemispheres, listed as recombinant uncarboxylated osteocalcin): increased freezing behavior as compared to controls; also recorded: increased freezing along with hyperexcitability
action potential frequency in pyramidal cells of the CA3 region (Gpr158; WT hippocampi, 10 ng/ml): significantly enhanced the action potential frequency
